According to patent publication US20200216441A1, “PESTICIDALLY ACTIVE HETEROCYCLIC DERIVATIVES WITH SULFUR CONTAINING SUBSTITUENTS” (SYNGENTA PARTICIPATIONS AG, priority 2017, published 2020):

Columns and labels:
[1] = tested on: Myzus persicae (Green Peach Aphid); assay: whole plant or invertebrate; type: in vivo; details: 144 h, test rate of 24 ppm, systemic, roots of infested pea seedlings in test solution, 6 days
[2] = tested on: Euschistus heros (Neotropical Brown Stink Bug); assay: whole plant or invertebrate; type: in vivo; details: 120 h, application rate of 200 ppm, N2 nymphs on sprayed soybean leaves, 5 days after infestation, read-out: effect in at least one of the two categories (mortality or growth inhibition)
[3] = tested on: Plutella xylostella (Diamond Back Moth); assay: whole plant or invertebrate; type: in vivo; details: 120 h, application rate of 200 ppm, L2 larvae on treated artificial diet, 5 days after infestation, read-out: effect in at least one of the two categories (mortality or growth inhibition)
[4] = tested on: Myzus persicae (Green Peach Aphid); assay: whole plant or invertebrate; details: foliar, 144 h
[5] = tested on: Diabrotica Balteata (Corn Root Worm); assay: Diabrotica balteata (Corn Root Worm); details: in Zea mays, 96 h, read-out: effect in at least one of the two categories (mortality or growth inhibition)
[6] = tested on: Spodoptera littoralis (Egyptian Cotton Leaf Worm); assay: whole plant or invertebrate; details: in Gossypium barbadense, foliar, 72 h, read-out: control (mortality, anti-feeding effect, growth inhibition)

CCS(=O)(=O)c1cc(OC2COC2)cnc1-c1nc2cc(C(F)(F)F)ncc2n1C [Compound P1, 2-[3-ethylsulfonyl-5-(oxetan-3-yloxy)-2-pyridyl]-3-methyl-6-(trifluoromethyl)imidazo[4,5-c]pyridine]
≥ 80%: mortality at 24 ppm [1] | percent effect (mortality or growth inhibition) at 200 ppm [2] | percent effect (mortality or growth inhibition) at 200 ppm [3] | mortality at 200 ppm [4] | mortality at 200 ppm [5]

CCS(=O)(=O)c1cc(OS(=O)(=O)C(F)(F)F)cnc1-c1nc2cc(C(F)(F)F)ncc2n1C [Compound P92, [5-ethylsulfonyl-6-[3-methyl-6-(trifluoromethyl)imidazo[4,5-c]pyridin-2-yl]-3-pyridyl] trifluoromethanesulfonate]
≥ 80%: mortality at 200 ppm [6]

CCSc1cc(OCC(F)F)cnc1-c1nc2cc(C(F)(F)F)ncc2n1C [Compound P81, 2-[5-(2,2-difluoroethoxy)-3-ethylsulfanyl-2-pyridyl]-3-methyl-6-(trifluoromethyl)imidazo[4,5-c]pyridine]
≥ 80%: mortality at 24 ppm [1] | percent effect (mortality or growth inhibition) at 200 ppm [2] | percent effect (mortality or growth inhibition) at 200 ppm [3] | mortality at 200 ppm [6] | mortality at 200 ppm [5]

CCS(=O)(=O)c1cc(OC(F)(F)C(=O)N(C)C)cnc1-c1nc2cc(C(F)(F)F)ncc2n1C [Compound P6, 2-[[5-ethylsulfonyl-6-[3-methyl-6-(trifluoromethyl)imidazo[4,5-c]pyridin-2-yl]-3-pyridyl]oxy]-2,2-difluoro-N,N-dimethyl-acetamide]
≥ 80%: mortality at 24 ppm [1] | percent effect (mortality or growth inhibition) at 200 ppm [2] | percent effect (mortality or growth inhibition) at 200 ppm [3] | mortality at 200 ppm [4] | mortality at 200 ppm [5]

CCOC(=O)Oc1cnc(-c2nc3cc(C(F)(F)F)ncc3n2C)c(S(=O)(=O)CC)c1 [Compound P84, ethyl [5-ethylsulfonyl-6-[3-methyl-6-(trifluoromethyl)imidazo[4,5-c]pyridin-2-yl]-3-pyridyl] carbonate]
≥ 80%: mortality at 200 ppm [6]

CCS(=O)(=O)c1cc(OC2(C)COC2)cnc1-c1nc2cc(C(F)(F)F)ncc2n1C [Compound P4, 2-[3-ethylsulfonyl-5-(3-methyloxetan-3-yl)oxy-2-pyridyl]-3-methyl-6-(trifluoromethyl)imidazo[4,5-c]pyridine]
≥ 80%: mortality at 24 ppm [1] | percent effect (mortality or growth inhibition) at 200 ppm [2] | percent effect (mortality or growth inhibition) at 200 ppm [3] | mortality at 200 ppm [4] | mortality at 200 ppm [5]

CCS(=O)(=O)c1cc(OC)cnc1-c1nc2cc(C(F)(F)F)ncc2n1C [Compound P13, 2-(3-ethylsulfonyl-5-methoxy-2-pyridyl)-3-methyl-6-(trifluoromethyl)imidazo[4,5-c]pyridine]
≥ 80%: mortality at 24 ppm [1] | percent effect (mortality or growth inhibition) at 200 ppm [3] | mortality at 200 ppm [6] | mortality at 200 ppm [4] | mortality at 200 ppm [5]

CCOc1cnc(-c2nc3cc(C(F)(F)F)ncc3n2C)c(S(=O)(=O)CC)c1 [Compound P12, 2-(5-ethoxy-3-ethylsulfonyl-2-pyridyl)-3-methyl-6-(trifluoromethyl)imidazo[4,5-c]pyridine]
≥ 80%: mortality at 24 ppm [1] | percent effect (mortality or growth inhibition) at 200 ppm [3] | mortality at 200 ppm [6] | mortality at 200 ppm [4] | mortality at 200 ppm [5]

C#CC(C)(C)Oc1cnc(-c2nc3cc(C(F)(F)F)ncc3n2C)c(SCC)c1 [Compound P82, 2-[5-(1,1-dimethylprop-2-ynoxy)-3-ethylsulfanyl-2-pyridyl]-3-methyl-6-(trifluoromethyl)imidazo[4,5-c]pyridine]
≥ 80%: percent effect (mortality or growth inhibition) at 200 ppm [2] | mortality at 200 ppm [6] | mortality at 200 ppm [5]

CCSc1cc(OC(C)C)cnc1-c1nc2cc(C(F)(F)F)ncc2n1C [Compound P27, 2-(3-ethylsulfanyl-5-isopropoxy-2-pyridyl)-3-methyl-6-(trifluoromethyl)imidazo[4,5-c]pyridine]
≥ 80%: percent effect (mortality or growth inhibition) at 200 ppm [3] | mortality at 200 ppm [6] | mortality at 200 ppm [4] | mortality at 200 ppm [5]

CCSc1cc(OC(C)C)cnc1-c1nc2cc(SC(F)(F)F)ncc2n1C [Compound P74, 2-(3-ethylsulfanyl-5-isopropoxy-2-pyridyl)-3-methyl-6-(trifluoromethylsulfanyl)imidazo[4,5-c]pyridine]
≥ 80%: percent effect (mortality or growth inhibition) at 200 ppm [2] | percent effect (mortality or growth inhibition) at 200 ppm [3] | mortality at 200 ppm [6] | mortality at 200 ppm [4] | mortality at 200 ppm [5]

CCSc1cc(OC(C)C)cnc1-c1nc2cc(S(=O)(=O)C(F)(F)F)ncc2n1C [Compound P73, 2-(3-ethylsulfanyl-5-isopropoxy-2-pyridyl)-3-methyl-6-(trifluoromethylsulfonyl)imidazo[4,5-c]pyridine]
≥ 80%: percent effect (mortality or growth inhibition) at 200 ppm [2] | percent effect (mortality or growth inhibition) at 200 ppm [3] | mortality at 200 ppm [6] | mortality at 200 ppm [4] | mortality at 200 ppm [5]

CCS(=O)(=O)c1cc(O[C@H]2C[C@H](OC)C2)cnc1-c1nc2cc(C(F)(F)F)ncc2n1C [Compound P45, 2-[3-ethylsulfonyl-5-(3-methoxycyclobutoxy)-2-pyridyl]-3-methyl-6-(trifluoromethyl)imidazo[4,5-c]pyridine]
≥ 80%: mortality at 24 ppm [1] | percent effect (mortality or growth inhibition) at 200 ppm [2] | percent effect (mortality or growth inhibition) at 200 ppm [3] | mortality at 200 ppm [6] | mortality at 200 ppm [4]

CCS(=O)(=O)c1cc(OC(C)(C)CS(C)(=O)=O)cnc1-c1nc2cc(C(F)(F)F)ncc2n1C [Compound P49, 2-[5-(1,1-dimethyl-2-methylsulfonyl-ethoxy)-3-ethylsulfonyl-2-pyridyl]-3-methyl-6-(trifluoromethyl)imidazo[4,5-c]pyridine]
≥ 80%: mortality at 24 ppm [1] | percent effect (mortality or growth inhibition) at 200 ppm [2] | percent effect (mortality or growth inhibition) at 200 ppm [3] | mortality at 200 ppm [4]

CCS(=O)(=O)c1cc(OC(C)C)ccc1-c1nc2cc(C(F)(F)F)ncc2n1C [Compound P108, 2-(2-ethylsulfonyl-4-isopropoxy-phenyl)-3-methyl-6-(trifluoromethyl)imidazo[4,5-c]pyridine]
≥ 80%: percent effect (mortality or growth inhibition) at 200 ppm [2] | percent effect (mortality or growth inhibition) at 200 ppm [3] | mortality at 200 ppm [6] | mortality at 200 ppm [4] | mortality at 200 ppm [5]

CCS(=O)(=O)c1cc(OC(F)(F)F)cnc1-c1nc2cc(C(F)(F)F)ncc2n1C [Compound P98, 2-[3-ethylsulfonyl-5-(trifluoromethoxy)-2-pyridyl]-3-methyl-6-(trifluoromethyl)imidazo[4,5-c]pyridine]
≥ 80%: percent effect (mortality or growth inhibition) at 200 ppm [2] | percent effect (mortality or growth inhibition) at 200 ppm [3] | mortality at 200 ppm [6] | mortality at 200 ppm [5]

CCS(=O)(=O)c1cc(OCC2CCC2)cnc1-c1nc2cc(C(F)(F)F)ncc2n1C [Compound P69, 2-[5-(cyclobutylmethoxy)-3-ethylsulfonyl-2-pyridyl]-3-methyl-6-(trifluoromethyl)imidazo[4,5-c]pyridine]
≥ 80%: percent effect (mortality or growth inhibition) at 200 ppm [2] | mortality at 200 ppm [6] | mortality at 200 ppm [4] | mortality at 200 ppm [5]

CCS(=O)(=O)c1cc(OCC(C)=O)cnc1-c1nc2cc(C(F)(F)F)ncc2n1C [Compound P65, 1-[[5-ethylsulfonyl-6-[3-methyl-6-(trifluoromethyl)imidazo[4,5-c]pyridin-2-yl]-3-pyridyl]oxy]propan-2-one]
≥ 80%: mortality at 24 ppm [1] | percent effect (mortality or growth inhibition) at 200 ppm [2] | percent effect (mortality or growth inhibition) at 200 ppm [3] | mortality at 200 ppm [4] | mortality at 200 ppm [5]

CCS(=O)(=O)c1cc(O/N=C(\C)c2cc(F)cc(F)c2)cnc1-c1nc2cc(C(F)(F)F)ncc2n1C [Compound P96, (E)-1-(3,5-difluorophenyl)-N-[[5-ethylsulfonyl-6-[3-methyl-6-(trifluoromethyl)imidazo[4,5-c]pyridin-2-yl]-3-pyridyl]oxy]ethanimine]
≥ 80%: percent effect (mortality or growth inhibition) at 200 ppm [2] | percent effect (mortality or growth inhibition) at 200 ppm [3] | mortality at 200 ppm [6] | mortality at 200 ppm [5]
